The target in test [1] is T1, Tyrosine-protein kinase receptor UFO (Homo sapiens, UniProt P30530).
T1 sequence (P30530 whole entry): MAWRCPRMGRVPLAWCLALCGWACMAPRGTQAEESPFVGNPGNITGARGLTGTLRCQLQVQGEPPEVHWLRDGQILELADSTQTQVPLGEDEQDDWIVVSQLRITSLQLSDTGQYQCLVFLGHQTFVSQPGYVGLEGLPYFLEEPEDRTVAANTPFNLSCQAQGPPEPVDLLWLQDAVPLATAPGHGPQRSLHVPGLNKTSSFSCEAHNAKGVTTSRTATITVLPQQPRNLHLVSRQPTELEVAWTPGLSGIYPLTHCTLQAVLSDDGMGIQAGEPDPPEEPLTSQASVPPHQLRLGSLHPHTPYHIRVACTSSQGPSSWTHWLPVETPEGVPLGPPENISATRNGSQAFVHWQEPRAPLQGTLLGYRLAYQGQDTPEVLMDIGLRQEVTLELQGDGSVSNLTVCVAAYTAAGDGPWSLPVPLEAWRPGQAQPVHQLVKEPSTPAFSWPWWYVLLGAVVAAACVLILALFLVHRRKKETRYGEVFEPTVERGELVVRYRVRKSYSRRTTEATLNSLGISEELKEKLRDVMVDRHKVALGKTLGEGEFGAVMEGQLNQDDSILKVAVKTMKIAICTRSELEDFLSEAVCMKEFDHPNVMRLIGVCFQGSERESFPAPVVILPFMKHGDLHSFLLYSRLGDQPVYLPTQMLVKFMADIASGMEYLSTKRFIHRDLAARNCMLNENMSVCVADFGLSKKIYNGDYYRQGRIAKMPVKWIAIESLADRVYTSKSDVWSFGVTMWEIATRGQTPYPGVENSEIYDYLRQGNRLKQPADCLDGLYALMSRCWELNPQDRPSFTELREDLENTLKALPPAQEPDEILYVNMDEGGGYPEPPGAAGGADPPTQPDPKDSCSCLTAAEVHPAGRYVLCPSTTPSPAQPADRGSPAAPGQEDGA
Nature of the test: Inhibition of human recombinant AXL expressed in Escherichia coli BL21 infected with T7 phage by qPCR method. Background: Real-time PCR tracks product formation cycle by cycle.

In test [2] the target is Hepatocyte growth factor receptor (Homo sapiens, UniProt P08581). Briefly: Inhibition of human recombinant MET expressed in Escherichia coli BL21 infected with T7 phage by qPCR method.
Test [3] has as its target T1, Tyrosine-protein kinase receptor UFO. Briefly: Inhibition of AXL (unknown origin) by cell based assay.
The target is the same in test [4]. Briefly: Inhibition of AXL in human GIST cells. In kind it is cell-based.
The target is the same in test [5]. Briefly: Inhibition of human full length AXL by scintillation counting method in presence of 33P-gammaATP.
For test [6] the target is unchanged. Briefly: Inhibition of human full length AXL after 4 hrs followed by stimulation with human recombinant Gas6 for 15 minutes by cell based assay.
Test [7] has as its target Vascular endothelial growth factor receptor 2 (Homo sapiens, UniProt P35968). Briefly: Inhibition of VEGFR2 (unknown origin).
The next test relates to MDA-MB-231. Briefly: Antimetastatic activity against human MDA-MB-231-luc-D3H2LN cells xenografted in NCr nu/nu mouse assessed as mouse survival at 125 mg/kg, bid administered daily for 21 days measured on day 22 by bioluminescence imaging analysis. Format: functional. For orientation: In xenograft studies the graft and the host belong to different species.
Test [8] deals with T2, Tyrosine-protein kinase receptor TYRO3 (Homo sapiens, UniProt Q06418).
T2 sequence (Q06418 whole entry): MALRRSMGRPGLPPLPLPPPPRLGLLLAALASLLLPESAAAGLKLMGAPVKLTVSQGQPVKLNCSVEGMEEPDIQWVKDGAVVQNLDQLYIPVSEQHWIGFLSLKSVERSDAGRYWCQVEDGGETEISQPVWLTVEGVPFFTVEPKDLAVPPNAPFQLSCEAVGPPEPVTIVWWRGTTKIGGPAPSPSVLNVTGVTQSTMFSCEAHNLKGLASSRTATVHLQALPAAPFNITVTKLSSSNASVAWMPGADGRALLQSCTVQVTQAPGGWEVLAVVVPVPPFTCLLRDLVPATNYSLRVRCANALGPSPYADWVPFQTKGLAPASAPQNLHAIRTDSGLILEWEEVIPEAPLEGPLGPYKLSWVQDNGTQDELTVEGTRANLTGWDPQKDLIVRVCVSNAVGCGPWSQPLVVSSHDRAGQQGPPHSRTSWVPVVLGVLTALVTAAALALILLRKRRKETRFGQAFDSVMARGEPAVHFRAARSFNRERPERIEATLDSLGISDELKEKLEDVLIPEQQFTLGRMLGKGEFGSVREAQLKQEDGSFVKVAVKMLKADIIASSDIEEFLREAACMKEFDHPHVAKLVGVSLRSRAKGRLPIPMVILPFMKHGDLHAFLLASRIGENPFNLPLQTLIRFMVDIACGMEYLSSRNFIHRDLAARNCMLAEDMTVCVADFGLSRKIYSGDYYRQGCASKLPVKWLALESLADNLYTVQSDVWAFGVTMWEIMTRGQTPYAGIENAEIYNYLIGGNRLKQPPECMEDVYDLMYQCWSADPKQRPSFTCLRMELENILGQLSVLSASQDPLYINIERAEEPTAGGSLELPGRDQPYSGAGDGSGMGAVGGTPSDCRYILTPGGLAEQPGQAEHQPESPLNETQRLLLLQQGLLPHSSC
Briefly: Inhibition of human recombinant TYRO3 by fluorescence polarization assay.

The target of test [9] is Tyrosine-protein kinase ABL1 (Homo sapiens, UniProt P00519). Nature of the test: Inhibition of human recombinant ABL by fluorescence polarization assay. In general terms: Polarisation of emitted light reports the rotation of a fluorescent probe.
Test [10] addresses T1, Tyrosine-protein kinase receptor UFO. Nature of the test: Inhibition of AXL (unknown origin).

A value given as a limit tells only on which side of the number the result lay.

Data on 6 compounds can be found in ChEMBL document CHEMBL3808287, “AXL Inhibitors in Cancer: A Medicinal Chemistry Perspective” (J Med Chem, 2016).

A word on the IC50: it is the concentration that gives 50% inhibition.

Vascular endothelial growth factor receptor 2, sequence (P35968 whole entry): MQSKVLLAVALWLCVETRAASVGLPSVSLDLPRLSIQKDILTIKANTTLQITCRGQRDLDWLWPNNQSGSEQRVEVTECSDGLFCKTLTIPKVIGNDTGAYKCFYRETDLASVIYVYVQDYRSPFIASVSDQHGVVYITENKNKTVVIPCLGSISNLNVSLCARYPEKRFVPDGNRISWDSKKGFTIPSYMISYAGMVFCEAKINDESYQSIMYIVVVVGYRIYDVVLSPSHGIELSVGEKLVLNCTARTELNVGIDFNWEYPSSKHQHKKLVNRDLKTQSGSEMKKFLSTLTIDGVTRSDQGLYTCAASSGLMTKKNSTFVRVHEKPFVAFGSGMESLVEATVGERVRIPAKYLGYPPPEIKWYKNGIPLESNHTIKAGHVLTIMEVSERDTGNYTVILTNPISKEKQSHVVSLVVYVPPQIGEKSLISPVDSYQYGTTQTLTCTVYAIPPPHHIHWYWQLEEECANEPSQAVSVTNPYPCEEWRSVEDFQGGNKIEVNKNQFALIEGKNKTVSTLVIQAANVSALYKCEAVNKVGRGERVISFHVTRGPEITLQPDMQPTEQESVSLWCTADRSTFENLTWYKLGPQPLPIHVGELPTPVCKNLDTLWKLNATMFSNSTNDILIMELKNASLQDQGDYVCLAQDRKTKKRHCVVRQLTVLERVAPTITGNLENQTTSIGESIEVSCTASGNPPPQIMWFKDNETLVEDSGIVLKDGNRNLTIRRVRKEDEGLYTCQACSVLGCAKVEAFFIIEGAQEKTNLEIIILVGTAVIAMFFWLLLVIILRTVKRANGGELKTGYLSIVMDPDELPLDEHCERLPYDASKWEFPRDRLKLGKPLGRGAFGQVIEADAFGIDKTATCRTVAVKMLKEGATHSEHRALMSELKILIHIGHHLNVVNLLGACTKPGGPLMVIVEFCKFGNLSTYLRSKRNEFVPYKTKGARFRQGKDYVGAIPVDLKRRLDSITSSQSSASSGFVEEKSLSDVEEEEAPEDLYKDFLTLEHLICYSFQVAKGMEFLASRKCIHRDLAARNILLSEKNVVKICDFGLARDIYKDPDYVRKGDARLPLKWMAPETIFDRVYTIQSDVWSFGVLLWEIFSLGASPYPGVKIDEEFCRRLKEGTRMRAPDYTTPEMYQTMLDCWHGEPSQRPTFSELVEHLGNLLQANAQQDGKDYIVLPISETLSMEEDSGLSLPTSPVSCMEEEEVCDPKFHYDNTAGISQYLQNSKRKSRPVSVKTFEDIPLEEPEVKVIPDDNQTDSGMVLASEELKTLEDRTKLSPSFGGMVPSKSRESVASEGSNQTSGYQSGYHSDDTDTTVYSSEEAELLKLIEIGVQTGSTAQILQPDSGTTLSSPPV
Hepatocyte growth factor receptor, sequence (P08581 whole entry): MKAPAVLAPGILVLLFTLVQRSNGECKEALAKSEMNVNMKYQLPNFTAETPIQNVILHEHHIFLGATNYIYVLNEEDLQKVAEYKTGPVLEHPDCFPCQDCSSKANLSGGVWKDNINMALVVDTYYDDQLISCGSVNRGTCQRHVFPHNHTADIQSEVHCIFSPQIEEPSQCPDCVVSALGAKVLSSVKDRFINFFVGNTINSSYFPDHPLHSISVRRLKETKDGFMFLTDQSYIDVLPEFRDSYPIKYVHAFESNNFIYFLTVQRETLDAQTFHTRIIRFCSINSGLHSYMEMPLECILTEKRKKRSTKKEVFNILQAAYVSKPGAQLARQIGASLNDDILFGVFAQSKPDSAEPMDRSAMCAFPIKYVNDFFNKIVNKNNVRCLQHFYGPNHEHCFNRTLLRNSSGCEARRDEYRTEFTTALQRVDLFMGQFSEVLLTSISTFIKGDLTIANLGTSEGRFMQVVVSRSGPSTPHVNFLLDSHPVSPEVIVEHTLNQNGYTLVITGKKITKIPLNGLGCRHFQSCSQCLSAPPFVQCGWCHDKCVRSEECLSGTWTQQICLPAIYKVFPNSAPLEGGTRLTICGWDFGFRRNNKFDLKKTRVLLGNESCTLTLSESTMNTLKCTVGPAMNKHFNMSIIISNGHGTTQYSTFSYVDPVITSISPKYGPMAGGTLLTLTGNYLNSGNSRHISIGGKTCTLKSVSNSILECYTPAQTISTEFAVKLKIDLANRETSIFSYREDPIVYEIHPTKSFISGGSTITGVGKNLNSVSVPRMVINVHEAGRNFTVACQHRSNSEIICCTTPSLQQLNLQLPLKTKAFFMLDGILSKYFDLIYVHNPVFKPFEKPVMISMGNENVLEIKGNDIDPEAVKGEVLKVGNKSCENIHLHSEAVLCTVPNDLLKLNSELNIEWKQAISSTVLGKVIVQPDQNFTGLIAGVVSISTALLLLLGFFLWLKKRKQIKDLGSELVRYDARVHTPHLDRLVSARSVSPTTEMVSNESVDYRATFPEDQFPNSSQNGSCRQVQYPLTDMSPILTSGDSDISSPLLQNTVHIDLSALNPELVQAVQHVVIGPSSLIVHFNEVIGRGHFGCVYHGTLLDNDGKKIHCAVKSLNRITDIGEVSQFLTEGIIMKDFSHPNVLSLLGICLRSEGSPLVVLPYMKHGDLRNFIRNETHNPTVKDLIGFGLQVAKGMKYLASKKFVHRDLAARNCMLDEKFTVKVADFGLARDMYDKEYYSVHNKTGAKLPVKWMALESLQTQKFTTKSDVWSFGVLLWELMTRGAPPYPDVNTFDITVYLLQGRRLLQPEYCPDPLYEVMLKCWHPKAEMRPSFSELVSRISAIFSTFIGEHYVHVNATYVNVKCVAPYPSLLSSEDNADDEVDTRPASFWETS
Tyrosine-protein kinase ABL1, sequence (P00519 whole entry): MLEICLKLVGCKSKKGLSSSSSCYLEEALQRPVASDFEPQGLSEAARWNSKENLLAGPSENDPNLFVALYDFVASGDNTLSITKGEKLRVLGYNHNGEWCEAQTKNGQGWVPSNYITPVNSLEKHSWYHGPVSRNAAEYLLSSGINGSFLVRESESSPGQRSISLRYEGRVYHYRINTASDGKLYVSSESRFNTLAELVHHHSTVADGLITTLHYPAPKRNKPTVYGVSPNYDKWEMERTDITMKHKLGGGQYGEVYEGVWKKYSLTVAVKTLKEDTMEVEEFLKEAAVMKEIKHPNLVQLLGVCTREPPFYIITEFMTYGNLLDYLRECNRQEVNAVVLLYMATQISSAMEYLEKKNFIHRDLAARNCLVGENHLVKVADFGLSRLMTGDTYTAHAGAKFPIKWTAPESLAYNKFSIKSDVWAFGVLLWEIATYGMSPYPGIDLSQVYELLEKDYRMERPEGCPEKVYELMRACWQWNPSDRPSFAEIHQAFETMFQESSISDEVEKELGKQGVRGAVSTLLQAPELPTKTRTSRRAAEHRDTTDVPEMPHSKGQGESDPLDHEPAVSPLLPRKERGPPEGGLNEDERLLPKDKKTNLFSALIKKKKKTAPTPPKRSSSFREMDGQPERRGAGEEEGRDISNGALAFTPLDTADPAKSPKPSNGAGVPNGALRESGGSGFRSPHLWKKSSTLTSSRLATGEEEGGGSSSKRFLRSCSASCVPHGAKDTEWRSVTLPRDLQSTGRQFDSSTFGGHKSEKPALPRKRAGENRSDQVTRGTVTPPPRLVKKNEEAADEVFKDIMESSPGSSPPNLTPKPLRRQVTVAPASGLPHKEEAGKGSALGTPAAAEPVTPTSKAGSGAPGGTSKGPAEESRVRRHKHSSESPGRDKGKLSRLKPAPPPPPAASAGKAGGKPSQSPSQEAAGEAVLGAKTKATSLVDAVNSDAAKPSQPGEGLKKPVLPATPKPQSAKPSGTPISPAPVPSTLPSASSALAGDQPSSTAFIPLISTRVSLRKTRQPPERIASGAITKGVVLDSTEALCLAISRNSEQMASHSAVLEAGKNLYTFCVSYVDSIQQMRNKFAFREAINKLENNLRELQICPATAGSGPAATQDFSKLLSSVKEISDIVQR

As to `Cc1c(C(=O)Nc2ccc(Oc3ccnc4[nH]cc(-c5ccccc5)c34)c(F)c2)c(=O)n(-c2ccc(F)cc2)n1C`, the half-inhibitory concentration (IC50) in test [1] is 0.01 µM; in test [2], 0.048 µM; in test [3], less than 0.5 µM.

As for `S=C(NCc1ccc2c(c1)OCO2)N1CCN(c2ncnc3c2oc2ccccc23)CC1` [AMUVATINIB], in test [4], the IC50 is less than 1 µM.

As for `Cc1ccc(C(=O)Nc2ccc(Oc3cc4cnn(C)c4cc3-c3cn[nH]c3)c(F)c2)c(=O)n1-c1ccc(F)cc1` [MERESTINIB], the concentration for half-maximal inhibition (IC50) came to 0.011 µM in [5] and 0.002 µM in test [6].

In turn, `COCCNCc1ccc(-c2cc3nccc(Oc4ccc(NC(=S)NC(=O)Cc5ccc(F)cc5)cc4F)c3s2)nc1` [GLESATINIB] showed a half-maximal inhibitory concentration (IC50) in [7] of 0.001 µM.

Take `Nc1nc(Nc2ccc3c(c2)CC[C@@H](N2CCCC2)CC3)nn1-c1cc2c(nn1)-c1ccccc1CCC2` [BEMCENTINIB]: the survival at 125 mg/kg in the test on MDA-MB-231 is greater than 35%. Moreover, the half-inhibitory concentration (IC50) in test [8] and in test [9] was greater than 0.7 µM each time.

Take `Cc1c[nH]c2nc(Nc3ccc(N4CCN(C)CC4)c(F)c3)nc(-c3cccc(CC#N)c3)c12`: the values for the IC50 in test [10] and in test [3] were 0.058 µM and less than 1 µM, respectively.
